Patent publication US20130029970A1 (priority 2009, published 2013)

How the values were obtained:
[1] = target: T1, recombinant human cannabinoid receptor CB2 (Homo sapiens, UniProt P34972); assay: Cannabinoid receptor radioligand binding assay, [3H]-CP 55,940 displacement, hCB2
T1 construct: (cDNA clone) CNR0200000
Summary of the method: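 Receptor source: membrane pellet (40,000×g) from transfected cells, stored in HEPES pH 7.4/MgCl2/EDTA/sucrose buffer.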

human CB1 receptors = target: T2, human CB1 receptors (Homo sapiens, UniProt P21554); assay: cAMP assay in HEK-293 cells, hCB1 agonist; format: cell-based; conditions: inhibition of forskolin-stimulated cAMP, HEK-293 cells; for EC50: read-out: hCB1 EC50 (cAMP ag)
T2 construct: (cDNA clone) CNR01L000
T2 sequence (P21554 whole entry): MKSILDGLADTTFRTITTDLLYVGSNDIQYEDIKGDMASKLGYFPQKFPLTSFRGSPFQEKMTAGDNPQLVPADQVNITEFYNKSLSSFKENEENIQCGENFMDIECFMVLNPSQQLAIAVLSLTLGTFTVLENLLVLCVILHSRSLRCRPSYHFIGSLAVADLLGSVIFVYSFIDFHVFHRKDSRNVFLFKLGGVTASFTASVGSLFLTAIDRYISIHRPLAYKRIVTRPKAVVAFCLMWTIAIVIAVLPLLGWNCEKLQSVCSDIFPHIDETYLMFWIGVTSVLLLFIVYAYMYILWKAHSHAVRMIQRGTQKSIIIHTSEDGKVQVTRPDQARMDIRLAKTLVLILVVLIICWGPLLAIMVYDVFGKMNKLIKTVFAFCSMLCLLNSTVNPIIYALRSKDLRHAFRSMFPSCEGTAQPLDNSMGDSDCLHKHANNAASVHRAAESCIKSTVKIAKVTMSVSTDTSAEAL
Summary of the method: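 Agonist EC50 taken as concentration giving half inhibition of forskolin-driven cAMP, normalized to forskolin maximum, from sigmoidal curves. Whole HEK-293 cells stably expressing hCB1, in HEPES/BSA-containing HBSS, exposed 30 min at 37° C. to compound with forskolin (90 uM in 3× dilution); cAMP read after lysis.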

[2] = target: T3, recombinant human cannabinoid receptor CB1 (Homo sapiens, UniProt P21554); assay: Cannabinoid receptor radioligand binding assay, [3H]-CP 55,940 displacement, hCB1
T3 construct: (cDNA clone) CNR01L000
T3 sequence (P21554 whole entry): as above
Summary of the method: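 Displacement of 0.5 nM [3H]-CP 55,940 (1 μM unlabeled CP 55,940 for nonspecific) measured by filtration and scintillation counting. Binding ran 90 min at room temperature in pH 7.5 Tris buffer with 0.1% fatty-acid-free BSA, using recombinant hCB1 HEK-293 membranes at 2-10 μg protein.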

T1 sequence (P34972 whole entry): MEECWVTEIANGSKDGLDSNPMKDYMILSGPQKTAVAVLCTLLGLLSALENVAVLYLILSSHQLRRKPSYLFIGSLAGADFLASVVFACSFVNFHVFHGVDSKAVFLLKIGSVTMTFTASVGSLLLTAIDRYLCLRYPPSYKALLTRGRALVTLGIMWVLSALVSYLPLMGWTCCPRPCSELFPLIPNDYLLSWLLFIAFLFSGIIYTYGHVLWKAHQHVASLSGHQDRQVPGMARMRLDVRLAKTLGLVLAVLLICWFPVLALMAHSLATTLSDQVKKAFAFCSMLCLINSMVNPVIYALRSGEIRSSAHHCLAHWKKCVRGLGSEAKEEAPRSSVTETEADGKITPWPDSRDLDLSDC

SMILES	IC50 [1]	EC50 (human CB1 receptors)	IC50 [2]	hCB1 EC50 (cAMP ag, nM) (human CB1 receptors)
COc1ccc(C(=O)c2cc3cc(C)n(CCN4CCOCC4)c3s2)c(C)c1 [Compound 88, (4-Methoxy-2-methylphenyl)(5-methyl-6-(2-morpholinoethyl)-6H-thieno[2,3-b]pyrrol-2-yl)methanone]	< 0.1 µM	0.1 to 1 µM	0.1 to 1 µM	
CCOc1ccc(C(=O)c2cc3cc(C)n(CCN4CCOCC4)c3s2)c(F)c1 [Compound 89, (4-Ethoxy-2-fluorophenyl)(5-methyl-6-(2-morpholinoethyl)-6H-thieno[2,3-b]pyrrol-2-yl)methanone]	0.1 to 1 µM	1 to 10 µM	1 to 10 µM	
COc1ccc(C(=O)c2cc3cc(C)n(CCN4CCCCC4)c3s2)c(Cl)c1 [Compound 90, (2-Chloro-4-methoxyphenyl)(5-methyl-6-(2-(piperidin-1-yl)ethyl)-6H-thieno[2,3-b]pyrrol-2-yl)methanone]	< 0.1 µM	0.1 to 1 µM	0.1 to 1 µM	
COc1ccc(C(=O)c2cc3cc(C)n(CCN4CCCC4)c3s2)c(F)c1 [Compound 92, (2-Fluoro-4-methoxyphenyl)(5-methyl-6-(2-(pyrrolidin-1-yl)ethyl)-6H-thieno[2,3-b]pyrrol-2-yl)methanone]	0.1 to 1 µM	1 to 10 µM	1 to 10 µM	
COc1ccc(C(=O)c2cc3cc(C)n(CCN4CCCC4)c3s2)c(Cl)c1 [Compound 93, (2-Chloro-4-methoxyphenyl)(5-methyl-6-(2-(pyrrolidin-1-yl)ethyl)-6H-thieno[2,3-b]pyrrol-2-yl)methanone]	< 0.1 µM	1 to 10 µM	0.1 to 1 µM	
COc1ccc(C(=O)c2cc3cc(C)n(CCCNS(C)(=O)=O)c3s2)c(C)c1 [Compound 96, N-(3-(2-(4-Methoxy-2-methylbenzoyl)-5-methyl-6H-thieno[2,3-b]pyrrol-6-yl)propyl)methanesulfonamide]	< 0.1 µM		1 to 10 µM	NS (NS means “Not Significant,” which means less than 30% agonist activity when compared to the positive control.)
COc1ccc(C(=O)c2cc3cc(C)n(CCN4CCCCC4)c3s2)c(F)c1 [Compound 98, (2-Fluoro-4-methoxyphenyl)(5-methyl-6-(2-(piperidin-1-yl)ethyl)-6H-thieno[2,3-b]pyrrol-2-yl)methanone]	< 0.1 µM		1 to 10 µM	NS (NS means “Not Significant,” which means less than 30% agonist activity when compared to the positive control.)
COc1ccc(C(=O)c2cc3cc(C)n(CCN4CCCCC4)c3s2)c(O)c1 [Compound 99, (2-Hydroxy-4-methoxyphenyl)(5-methyl-6-(2-(piperidin-1-yl)ethyl)-6H-thieno[2,3-b]pyrrol-2-yl)methanone]	0.1 to 1 µM		1 to 10 µM	NS (NS means “Not Significant,” which means less than 30% agonist activity when compared to the positive control.)
COc1ccc(C(O)c2cc3cc(C)n(CCN4CCOCC4)c3s2)cc1 (stereo not drawn) [Compound 100, (4-Methoxyphenyl)(5-methyl-6-(2-morpholinoethyl)-6H-thieno[2,3-b]pyrrol-2-yl)methanol]	0.1 to 1 µM		1 to 10 µM	NS (NS means “Not Significant,” which means less than 30% agonist activity when compared to the positive control.)
COc1ccc(C(C)(O)c2cc3cc(C)n(CCN4CCOCC4)c3s2)cc1 (stereo not drawn) [Compound 101, 1-(4-methoxyphenyl)-1-(5-methyl-6-(2-morpholinoethyl)-6H-thieno[2,3-b]pyrrol-2-yl)ethanol]	0.1 to 1 µM		1 to 10 µM	NS (NS means “Not Significant,” which means less than 30% agonist activity when compared to the positive control.)
COc1ccc(C(=O)c2cc3cc(C)n(CCCCNS(C)(=O)=O)c3s2)cc1 [Compound 102, N-(4-(2-(4-Methoxybenzoyl)-5-methyl-6H-thieno[2,3-b]pyrrol-6-yl)butyl)methanesulfonamide]	< 0.1 µM		1 to 10 µM	NS (NS means “Not Significant,” which means less than 30% agonist activity when compared to the positive control.)
COc1ccc(Cn2c(C)cc3cc(C(=O)c4ccc(OC)cc4)sc32)cc1 [Compound 103, (6-(4-Methoxybenzyl)-5-methyl-6H-thieno[2,3-b]pyrrol-2-yl)(4-methoxyphenyl)methanone]	0.1 to 1 µM		1 to 10 µM	NS (NS means “Not Significant,” which means less than 30% agonist activity when compared to the positive control.)
COc1ccc(C(=S)c2cc3cc(C)n(CCN4CCOCC4)c3s2)cc1 [Compound 104, (4-methoxyphenyl)(5-methyl-6-(2-morpholinoethyl)-6H-thieno[2,3-b]pyrrol-2-yl)methanethione]	1 to 10 µM		1 to 10 µM	NS (NS means “Not Significant,” which means less than 30% agonist activity when compared to the positive control.)
COc1ccc(C(=O)c2cc3cc(C)n(CCCNS(N)(=O)=O)c3s2)cc1 [Compound 105]	1 to 10 µM		> 10 µM	NS (NS means “Not Significant,” which means less than 30% agonist activity when compared to the positive control.)
Cc1cc2cc(C(=O)c3ccc4c(c3)OCO4)sc2n1CCN1CCOCC1 [Compound 106, Benzo[d][1,3]dioxol-5-yl(5-methyl-6-(2-morpholinoethyl)-6H-thieno[2,3-b]pyrrol-2-yl)methanone]	0.1 to 1 µM		1 to 10 µM	NS (NS means “Not Significant,” which means less than 30% agonist activity when compared to the positive control.)
COc1ccc(C(=O)c2cc3cc(C)n(CCCN4CCOCC4)c3s2)cc1 [Compound 107, (4-Methoxyphenyl)(5-methyl-6-(3-morpholinopropyl)-6H-thieno[2,3-b]pyrrol-2-yl)methanone]	< 0.1 µM	0.1 to 1 µM	0.1 to 1 µM	
COc1ccc(C(=O)c2cc3cc(C)n(CCCNC(C)(C)C)c3s2)cc1 [Compound 108, (6-(3-(tert-Butylamino)propyl)-5-methyl-6H-thieno[2,3-b]pyrrol-2-yl)(4-methoxyphenyl)methanone]	> 10 µM		> 10 µM	NS (NS means “Not Significant,” which means less than 30% agonist activity when compared to the positive control.)
COc1ccc(C(=O)c2cc3cc(C)n(CCCNS(C)(=O)=O)c3s2)cn1 [Compound 109, N-(3-(2-(6-Methoxynicotinoyl)-5-methyl-6H-thieno[2,3-b]pyrrol-6-yl)propyl)methanesulfonamide]	0.1 to 1 µM		> 10 µM	NS (NS means “Not Significant,” which means less than 30% agonist activity when compared to the positive control.)
COc1ccc(C(=O)c2cc3cc(C)n(CCN4CCSCC4)c3s2)cc1 [Compound 110, (4-Methoxyphenyl)(5-methyl-6-(2-thiomorpholinoethyl)-6H-thieno[2,3-b]pyrrol-2-yl)methanone]	< 0.1 µM	1 to 10 µM	1 to 10 µM	
Cc1cc2cc(C(=O)c3ccc(OC(C)C)cc3)sc2n1CCN1CCOCC1 [Compound 111, (4-Isopropoxyphenyl)(5-methyl-6-(2-morpholinoethyl)-6H-thieno[2,3-b]pyrrol-2-yl)methanone]	0.1 to 1 µM		1 to 10 µM	NS (NS means “Not Significant,” which means less than 30% agonist activity when compared to the positive control.)
COc1ccc(C(=O)c2cc3cc(C)n(Cc4ccncc4)c3s2)cc1 [Compound 112, (4-Methoxyphenyl)(5-methyl-6-(pyridin-4-ylmethyl)-6H-thieno[2,3-b]pyrrol-2-yl)methanone]	0.1 to 1 µM		1 to 10 µM	NS (NS means “Not Significant,” which means less than 30% agonist activity when compared to the positive control.)
COc1ccc(C(=O)c2cc3cc(C)n(S(=O)(=O)N(C)C)c3s2)cn1 [Compound 113, 2-(6-Methoxynicotinoyl)-N,N,5-trimethyl-6H-thieno[2,3-b]pyrrole-6-sulfonamide]	< 0.1 µM		1 to 10 µM	NS (NS means “Not Significant,” which means less than 30% agonist activity when compared to the positive control.)
COc1ccc(C(=O)c2cc3cc(C)n(Cc4ccccc4)c3s2)c(Cl)c1 [Compound 114, (6-Benzyl-5-methyl-6H-thieno[2,3-b]pyrrol-2-yl)(2-chloro-4-methoxyphenyl)methanone]	< 0.1 µM	1 to 10 µM	1 to 10 µM	
CSc1ccc(C(=O)c2cc3cc(C)n(CCN4CCOCC4)c3s2)cc1 [Compound 115, (5-Methyl-6-(2-morpholinoethyl)-6H-thieno[2,3-b]pyrrol-2-yl)(4-(methylthio)phenyl)methanone]	0.1 to 1 µM		1 to 10 µM	NS (NS means “Not Significant,” which means less than 30% agonist activity when compared to the positive control.)
COc1ccc(C(=O)c2cc3cc(C)n(CCN4CCOCC4)c3s2)cc1Cl [Compound 116, (3-Chloro-4-methoxyphenyl)(5-methyl-6-(2-morpholinoethyl)-6H-thieno[2,3-b]pyrrol-2-yl)methanone]	0.1 to 1 µM		1 to 10 µM	NS (NS means “Not Significant,” which means less than 30% agonist activity when compared to the positive control.)
